# In ChEMBL document CHEMBL3774364, “Synthesis of N-cyano-substituted sulfilimine and sulfoximine derivatives of S0859 and their biological evaluation as sodium bicarbonate co-transport inhibitors” (Medchemcomm, 2015):
# The source made the active and inactive calls. The rule behind the calls is not given here.
# Legend:
# [1] = molecular target: T1, Sodium bicarbonate cotransporter 3 (Mus musculus) (UniProt Q8BTY2); assay: Inhibition of NBCn1 in epithelial organoids from mouse ErbB2-overexpressing breast cancer tissue assessed as Na(+) -dependent pHi recovery rate at 30 uM
# T1 sequence (whole entry): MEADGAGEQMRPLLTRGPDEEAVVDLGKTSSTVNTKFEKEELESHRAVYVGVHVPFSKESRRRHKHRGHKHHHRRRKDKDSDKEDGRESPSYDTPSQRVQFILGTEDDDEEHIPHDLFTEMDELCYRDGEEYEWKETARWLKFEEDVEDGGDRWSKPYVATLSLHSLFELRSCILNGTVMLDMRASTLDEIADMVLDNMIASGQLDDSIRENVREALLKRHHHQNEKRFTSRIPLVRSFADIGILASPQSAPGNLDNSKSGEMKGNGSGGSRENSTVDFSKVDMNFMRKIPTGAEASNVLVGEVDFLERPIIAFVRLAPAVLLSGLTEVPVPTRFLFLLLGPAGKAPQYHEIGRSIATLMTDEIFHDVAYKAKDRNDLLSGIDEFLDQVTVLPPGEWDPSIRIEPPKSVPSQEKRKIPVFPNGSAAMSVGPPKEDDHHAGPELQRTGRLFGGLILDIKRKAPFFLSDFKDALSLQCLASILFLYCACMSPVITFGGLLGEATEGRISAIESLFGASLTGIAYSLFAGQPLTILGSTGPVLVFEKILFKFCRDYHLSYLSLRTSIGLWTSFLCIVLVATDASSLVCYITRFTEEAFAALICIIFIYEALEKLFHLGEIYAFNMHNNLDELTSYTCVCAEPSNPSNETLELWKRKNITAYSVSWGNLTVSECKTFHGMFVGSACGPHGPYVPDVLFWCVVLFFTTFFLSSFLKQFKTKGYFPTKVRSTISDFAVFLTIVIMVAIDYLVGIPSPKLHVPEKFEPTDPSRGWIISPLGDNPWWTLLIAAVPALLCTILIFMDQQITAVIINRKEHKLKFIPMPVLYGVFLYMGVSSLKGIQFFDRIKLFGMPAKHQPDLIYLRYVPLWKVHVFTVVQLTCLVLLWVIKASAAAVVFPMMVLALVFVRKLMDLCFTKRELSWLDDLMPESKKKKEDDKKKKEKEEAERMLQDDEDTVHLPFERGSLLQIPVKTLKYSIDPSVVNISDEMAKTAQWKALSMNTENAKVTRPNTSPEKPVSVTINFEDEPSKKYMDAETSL
# [2] = molecular target: T2, Sodium bicarbonate cotransporter 3 (Homo sapiens) (UniProt Q9Y6M7); assay: Inhibition of NBCn1 in human MCF7 cells assessed as decrease in Na(+) -dependent pHi recovery rate at 30 uM; format: cell-based
# T2 sequence (whole entry): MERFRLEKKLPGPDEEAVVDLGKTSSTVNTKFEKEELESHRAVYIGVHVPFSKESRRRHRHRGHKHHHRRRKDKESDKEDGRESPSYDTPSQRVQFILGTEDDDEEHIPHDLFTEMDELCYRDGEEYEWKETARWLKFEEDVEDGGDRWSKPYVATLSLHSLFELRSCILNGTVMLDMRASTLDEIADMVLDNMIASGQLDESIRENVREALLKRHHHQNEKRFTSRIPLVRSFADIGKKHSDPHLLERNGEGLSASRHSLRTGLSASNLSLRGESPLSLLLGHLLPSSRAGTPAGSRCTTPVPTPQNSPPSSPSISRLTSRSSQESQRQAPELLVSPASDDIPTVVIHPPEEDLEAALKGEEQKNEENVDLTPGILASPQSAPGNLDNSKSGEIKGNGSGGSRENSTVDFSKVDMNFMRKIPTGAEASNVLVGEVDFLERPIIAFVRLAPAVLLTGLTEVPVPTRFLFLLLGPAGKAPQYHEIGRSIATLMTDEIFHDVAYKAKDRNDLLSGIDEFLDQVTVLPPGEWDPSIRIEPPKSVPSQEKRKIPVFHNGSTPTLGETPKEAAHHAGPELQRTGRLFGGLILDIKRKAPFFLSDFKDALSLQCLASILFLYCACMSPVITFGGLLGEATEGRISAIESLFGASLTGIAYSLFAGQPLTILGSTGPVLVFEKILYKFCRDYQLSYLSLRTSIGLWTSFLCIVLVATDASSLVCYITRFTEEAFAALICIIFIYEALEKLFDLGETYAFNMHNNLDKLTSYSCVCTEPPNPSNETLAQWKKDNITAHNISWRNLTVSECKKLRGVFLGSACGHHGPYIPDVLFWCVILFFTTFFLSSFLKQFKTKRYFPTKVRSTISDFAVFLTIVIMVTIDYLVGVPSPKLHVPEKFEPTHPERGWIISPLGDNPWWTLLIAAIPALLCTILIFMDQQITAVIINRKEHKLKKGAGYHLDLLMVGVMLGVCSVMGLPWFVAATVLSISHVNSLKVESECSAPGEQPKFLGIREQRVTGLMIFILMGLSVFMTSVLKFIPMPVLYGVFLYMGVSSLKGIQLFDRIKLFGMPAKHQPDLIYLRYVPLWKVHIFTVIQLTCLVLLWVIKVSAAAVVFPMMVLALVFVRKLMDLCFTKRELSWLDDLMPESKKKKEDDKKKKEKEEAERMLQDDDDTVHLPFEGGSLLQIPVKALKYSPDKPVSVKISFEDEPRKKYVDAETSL
inhibition [1],inhibition [2],SMILES
inactive,inactive,Cc1ccc(CN(Cc2ccc(-c3ccccc3/S(C)=N/C#N)cc2)C(=O)c2ccccc2Cl)cc1 (stereo unspecified)
inactive,45%,Cc1ccc(CN(Cc2ccc(-c3ccccc3S(=O)(=O)NC#N)cc2)C(=O)c2ccccc2Cl)cc1
inactive,inactive,Cc1ccc(CN(Cc2ccc(-c3ccccc3S(C)(=O)=NC#N)cc2)C(=O)c2ccccc2Cl)cc1 (stereo unspecified)
